Test results: the supplement of paper PMC10307832

Tests used:
Assay in all cases: relative viability (nuclei count vs DMSO), 5 days (fraction); higher = more cells survive
[1] = compound: C1CCC(CC1)N(CCNCCC2=C3C(=C(C=C2)O)NC(=O)CO3)C(=O)CCNCCC4=CC(=C(C=C4)Cl)Cl [AZ505] + N=C(N)NC(=N)NCCc1ccccc1 [Phenformin] (partner 250 µM)
Method in brief: (§1)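 Relative viability divides the nuclei count in treated wells by that in vehicle wells. Lung cancer cell lines were seeded in 1536-well plates, dosed by pin tool the next day, and fixed and stained after 5 days in one step with final 0.05% Triton X-100, 1% formaldehyde and 1 ug/ml Hoechst. Dosing was a single drug or a fixed anchor-drug dose plus five library-drug doses (not always all listed) in √10 steps, and values are medians of duplicate plates imaged at 4×.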

[2] = compound: Cn1c(=O)n(-c2ccc(C(C)(C)C#N)cc2)c2c3cc(-c4cnc5ccccc5c4)ccc3ncc21 [Dactolisib] + CCNC(=O)c1noc(-c2cc(C(C)C)c(O)cc2O)c1-c1ccc(CN2CCOCC2)cc1 [Luminespib] (partner 0.01 µM)
Method in brief: as §1

[3] = compound: C1CCC(CC1)N(CCNCCC2=C3C(=C(C=C2)O)NC(=O)CO3)C(=O)CCNCCC4=CC(=C(C=C4)Cl)Cl [AZ505] + C[C@]1(O)C[C@@H](c2nc(-c3ccc4ccc(-c5ccccc5)nc4c3)c3c(N)nccn32)C1 [Linsitinib] (partner 1 µM)
Method in brief: as §1

[4] = compound: C1CCC(CC1)N(CCNCCC2=C3C(=C(C=C2)O)NC(=O)CO3)C(=O)CCNCCC4=CC(=C(C=C4)Cl)Cl [AZ505] + COc1cccc2cc(-c3nc([C@H]4CC[C@H](C(=O)O)CC4)n4ncnc(N)c34)[nH]c12 [OSI-027] (partner 0.5 µM)
Method in brief: as §1

| Cell Line | relative viability ([1]; first compound 0.08 µM) | relative viability ([1]; first compound 0.8 µM) | relative viability ([1]; first compound 2.53 µM) | relative viability ([1]; first compound 8 µM) | relative viability ([2]; first compound 0.002 µM) | relative viability ([2]; first compound 0.006325 µM) | relative viability ([2]; first compound 0.02 µM) | relative viability ([2]; first compound 0.06325 µM) | relative viability ([2]; first compound 0.2 µM) | relative viability ([3]; first compound 0.08 µM) | relative viability ([3]; first compound 0.253 µM) | relative viability ([3]; first compound 0.8 µM) | relative viability ([3]; first compound 2.53 µM) | relative viability ([3]; first compound 8 µM) | relative viability ([4]; first compound 0.08 µM) | relative viability ([4]; first compound 0.253 µM) | relative viability ([4]; first compound 0.8 µM) | relative viability ([4]; first compound 2.53 µM) | relative viability ([4]; first compound 8 µM) | relative viability ([1]; first compound 0.253 µM) |
| --- | --- | --- | --- | --- | --- | --- | --- | --- | --- | --- | --- | --- | --- | --- | --- | --- | --- | --- | --- | --- |
| HCC-44 | 0.144 | 0.294 | 0.247 | 0.207 | 0.914 | 1.04 | 0.943 | 0.379 | 0.644 | 0.671 | 0.691 | 0.619 | 0.654 | 0.663 | 0.468 | 0.594 | 0.534 | 0.639 | 0.486 |  |
| HCC-827 | 0.401 | 0.453 | 0.44 | 0.425 | 0.532 | 0.626 | 0.538 | 0.401 | 0.144 | 0.923 | 0.958 | 0.856 | 0.977 | 0.964 | 0.691 | 0.844 | 0.753 | 0.846 | 0.847 | 0.427 |
| NCI-H1623 | 0.54 | 0.621 | 0.509 | 0.629 | 0.604 | 0.491 | 0.462 | 0.308 | 0.275 |  |  |  |  |  | 0.423 | 0.405 | 0.452 | 0.476 | 0.398 | 0.504 |
| NCI-H2347 | 0.271 |  |  | 0.331 | 0.49 | 0.433 | 0.467 | 0.286 | 0.284 | 0.6 | 0.603 | 0.668 | 0.543 | 0.714 | 0.25 |  |  |  | 0.343 |  |
| PC-14 | 0.519 | 0.573 | 0.482 | 0.668 | 0.136 | 0.16 | 0.172 | 0.11 | 0.128 | 0.88 | 0.948 | 0.922 | 0.881 | 0.951 | 0.72 | 0.835 | 0.666 | 0.765 | 0.786 | 0.328 |
| NCI-H1651 | 0.385 | 0.318 | 0.357 | 0.345 | 1.13 | 0.818 | 0.863 | 0.309 | 0.321 | 0.911 | 0.977 | 0.895 | 0.962 | 1.16 | 0.678 | 0.75 | 0.725 | 0.763 | 0.717 | 0.346 |
| HARA | 0.389 | 0.42 | 0.343 | 0.408 | 0.829 | 0.462 | 0.62 | 0.314 | 0.121 | 0.897 | 0.894 | 0.695 | 0.737 | 0.773 | 0.269 | 0.234 | 0.352 | 0.345 | 0.365 | 0.422 |
| NCI-H1650 | 0.429 | 0.423 | 0.405 | 0.463 | 0.19 | 0.185 | 0.192 | 0.206 | 0.202 |  |  |  |  |  | 0.7 | 0.677 | 0.672 | 0.554 | 0.806 | 0.4 |
| NCI-H1395 | 0.435 | 0.426 | 0.483 | 0.479 | 0.544 | 0.681 | 0.678 | 0.434 | 0.43 | 0.972 | 1.01 | 0.949 | 0.971 | 1 | 0.685 | 0.543 | 0.563 | 0.622 | 0.604 | 0.461 |
| SK-LU-1 | 0.353 | 0.33 | 0.394 | 0.379 | 0.211 | 0.18 | 0.214 | 0.159 | 0.132 | 0.45 | 0.592 | 0.798 | 0.588 | 0.765 | 0.168 | 0.184 | 0.201 | 0.197 | 0.255 | 0.345 |
| LU99A |  | 0.987 | 0.715 | 0.853 | 0.257 | 0.228 | 0.29 | 0.202 | 0.192 | 0.524 | 0.647 | 0.507 | 0.573 | 0.565 |  | 0.346 | 0.271 | 0.32 | 0.329 | 0.741 |
| NCI-H1355 | 0.433 | 0.477 | 0.481 | 0.499 | 0.862 | 0.705 | 0.529 | 0.276 | 0.186 | 0.787 | 0.783 | 0.81 | 0.684 | 0.826 | 0.395 | 0.319 | 0.384 | 0.362 | 0.429 | 0.407 |
| HCC-78 | 0.531 | 0.707 | 0.731 | 0.728 |  |  |  |  |  |  | 0.642 | 0.571 | 0.619 | 0.7 | 0.386 | 0.33 | 0.37 | 0.438 | 0.466 | 0.611 |
| NCI-H1563 | 0.626 | 0.696 | 0.664 | 0.666 | 0.535 | 0.532 | 0.511 | 0.47 | 0.507 | 1.24 | 1.32 | 1.13 | 1.29 | 1.15 | 0.801 | 0.811 | 0.789 | 0.702 | 0.735 | 0.646 |
| HCC-15 | 0.411 | 0.474 | 0.415 | 0.446 | 0.38 | 0.303 | 0.507 | 0.173 | 0.142 | 0.877 | 0.909 | 0.842 | 0.837 | 0.919 | 0.612 | 0.624 | 0.596 | 0.594 | 0.726 | 0.476 |
| EKVX | 0.21 | 0.238 | 0.198 | 0.251 | 0.808 | 0.743 | 0.736 | 0.453 | 0.247 | 0.963 | 1.15 | 0.951 | 1.04 | 1.06 | 0.674 | 0.714 | 0.684 | 0.645 | 0.717 | 0.245 |
| NCI-H2087 | 0.389 | 0.395 | 0.396 | 0.471 | 0.281 | 0.164 | 0.146 | 0.128 | 0.121 | 0.986 | 0.846 | 0.986 | 0.932 | 0.973 | 0.403 | 0.368 | 0.595 | 0.518 | 0.728 | 0.35 |
